According to patent US5753715A, “2-disubstituted cyclohexenyl and cyclohexyl antimicrobial agents” (Ortho Pharmaceutical Corporation, priority 1995, dated 1998):
In brackets after ≈: the same amount, converted by molar mass.

What was measured:
[1] = test system: S. aureus ATCC 29213; experiment: MIC, microdilution broth method (NCCLS); format: cell-based; settings: cation supplemented Mueller Hinton broth, 35° C., 16-20 hours; unit assumed
Protocol: (§1) The in vitro antimicrobial spectrum of the compounds of the present invention were determined by the microdilution broth method following the test method from the National Committee for […] (NCCLS ). The method is described in the NCCLS Document M7-A2, Vol. 10, No.8 "Methods for Dilution Antimicrobial Susceptibility Test for Bacteria that Grow Aerobically--Second Edition".
(§2) In this method two fold serial dilutions of drug in cation supplemented Mueller Hinton broth are added to wells in microdilution trays. The test organisms are prepared by adjusting the turbidity of actively growing broth cultures so that the final concentration of test organism after it is added to the wells is approximately 5×10^4 colony forming units per well delivered by the Steers replicating device.
(§3) Following inoculation of the microdilution trays, the trays are incubated at 35° C. for 16-20 hours and then read. […] The amount of growth in the wells containing the test compound is compared with the amount of growth in the growth-control wells used in each tray.

[2] = test system: E. faecalis ACTCC 29212; experiment: MIC, microdilution broth method (NCCLS); format: cell-based; settings: cation supplemented Mueller Hinton broth, 35° C., 16-20 hours; unit assumed
Protocol: as §1, §2, §3

[3] = test system: Ps. aerug. oc27853; experiment: MIC, microdilution broth method (NCCLS); format: cell-based; settings: cation supplemented Mueller Hinton broth, 35° C., 16-20 hours; unit assumed
Protocol: as §1, §2, §3

[4] = test system: MRSA oc667; experiment: MIC, microdilution broth method (NCCLS); format: cell-based; settings: cation supplemented Mueller Hinton broth, 35° C., 16-20 hours; unit assumed
Protocol: as §1, §2, §3

[5] = test system: C. tropicalis; experiment: MIC, microdilution broth method (NCCLS); format: cell-based; settings: cation supplemented Mueller Hinton broth, 35° C., 16-20 hours; unit assumed
Protocol: as §1, §2, §3

[6] = test system: A. niger 10578; experiment: MIC, microdilution broth method (NCCLS); format: cell-based; settings: cation supplemented Mueller Hinton broth, 35° C., 16-20 hours; unit assumed
Protocol: as §1, §2, §3

[7] = test system: C. albicans 10231; experiment: MIC, microdilution broth method (NCCLS); format: cell-based; settings: cation supplemented Mueller Hinton broth, 35° C., 16-20 hours; unit assumed
Protocol: as §1, §2, §3

[8] = test system: E. faecium oc2993; experiment: MIC, microdilution broth method (NCCLS); format: cell-based; settings: cation supplemented Mueller Hinton broth, 35° C., 16-20 hours; unit assumed
Protocol: as §1, §2, §3

[9] = test system: Ps. aerug. oc161; experiment: MIC, microdilution broth method (NCCLS); format: cell-based; settings: cation supplemented Mueller Hinton broth, 35° C., 16-20 hours; unit assumed
Protocol: as §1, §2, §3

[10] = test system: E. coli oc2605; experiment: MIC, microdilution broth method (NCCLS); format: cell-based; settings: cation supplemented Mueller Hinton broth, 35° C., 16-20 hours; unit assumed
Protocol: as §1, §2, §3

[11] = test system: E. faecalis oc3041; experiment: MIC, microdilution broth method (NCCLS); format: cell-based; settings: cation supplemented Mueller Hinton broth, 35° C., 16-20 hours; unit assumed
Protocol: as §1, §2, §3

[12] = test system: MRSA oc2089; experiment: MIC, microdilution broth method (NCCLS); format: cell-based; settings: cation supplemented Mueller Hinton broth, 35° C., 16-20 hours; unit assumed
Protocol: as §1, §2, §3

[13] = test system: K. pneum. oc1943; experiment: MIC, microdilution broth method (NCCLS); format: cell-based; settings: cation supplemented Mueller Hinton broth, 35° C., 16-20 hours; unit assumed
Protocol: as §1, §2, §3

[14] = test system: E. coli oc2530; experiment: MIC, microdilution broth method (NCCLS); format: cell-based; settings: cation supplemented Mueller Hinton broth, 35° C., 16-20 hours; unit assumed
Protocol: as §1, §2, §3

[15] = test system: S. epi oc2603; experiment: MIC, microdilution broth method (NCCLS); format: cell-based; parameters: unit not given here; settings: cation supplemented Mueller Hinton broth, 35° C., 16-20 hours
Protocol: as §1, §2, §3

[16] = molecular target: T1, Kinase A and SpoOF (Bacillus subtilis, UniProt P16497); experiment: Autophosphorylation of Kinase A and Transphosphorylation of SPoOF Assay; format: biochemical; settings: inhibition of Kinase A autophosphorylation / SpoOF transphosphorylation, [32P]ATP, gel, phosphoimager
T1 sequence (P16497 1-606): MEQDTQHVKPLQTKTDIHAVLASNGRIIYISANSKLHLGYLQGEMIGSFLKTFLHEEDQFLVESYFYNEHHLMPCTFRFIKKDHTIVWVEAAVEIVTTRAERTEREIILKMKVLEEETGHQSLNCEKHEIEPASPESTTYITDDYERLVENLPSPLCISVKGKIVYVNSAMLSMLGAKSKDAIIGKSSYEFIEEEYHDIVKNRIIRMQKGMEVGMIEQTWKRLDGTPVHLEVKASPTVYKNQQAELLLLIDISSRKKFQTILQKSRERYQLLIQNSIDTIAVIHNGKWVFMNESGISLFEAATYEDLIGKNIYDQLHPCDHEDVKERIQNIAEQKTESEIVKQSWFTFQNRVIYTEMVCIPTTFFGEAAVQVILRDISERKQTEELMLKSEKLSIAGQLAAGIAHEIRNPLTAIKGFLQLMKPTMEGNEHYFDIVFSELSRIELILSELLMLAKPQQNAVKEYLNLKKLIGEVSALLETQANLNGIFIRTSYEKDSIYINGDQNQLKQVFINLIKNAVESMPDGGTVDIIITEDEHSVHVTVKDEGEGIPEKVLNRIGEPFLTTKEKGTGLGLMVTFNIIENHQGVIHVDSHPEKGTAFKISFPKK

## C1=CC(CCOc2ccc(CCCNCCN3CCCC3)cc2)(Cc2ccccc2)CCC1 (stereo not drawn) [Compound 3]
[1]
  MIC S. aureus ATCC 29213: 8 µg/mL (≈ 17.9 µM)
[2]
  MIC E. faecalis ACTCC 29212: 8 µg/mL (≈ 17.9 µM)
[3]
  MIC Ps. aerug. oc27853: > 64 µg/mL
[4]
  MIC MRSA oc667: 8 µg/mL (≈ 17.9 µM)
[5]
  MIC C. tropicalis: 8 µg/mL (≈ 17.9 µM)
[6]
  MIC A. niger 10578: 4 µg/mL (≈ 8.95 µM)
[7]
  MIC C. albicans 10231: > 64 µg/mL
[8]
  MIC E. faecium oc2993: 8 µg/mL (≈ 17.9 µM)
[9]
  MIC Ps. aerug. oc161: > 64 µg/mL
[10]
  MIC E. coli oc2605: 16 µg/mL (≈ 35.8 µM)
[11]
  MIC E. faecalis oc3041: 8 µg/mL (≈ 17.9 µM)
[12]
  MIC MRSA oc2089: 8 µg/mL (≈ 17.9 µM)
[13]
  MIC K. pneum. oc1943: 32 µg/mL (≈ 71.6 µM)
[14]
  MIC E. coli oc2530: 8 µg/mL (≈ 17.9 µM)
[15]
  MIC S. epi oc2603: 8
[16]
  IC50: 159 mM
  IC min: 31.25 mM

## NCCc1ccc(OCCC2(Cc3ccccc3)C=CCCC2)cc1 (stereo not drawn) [Compound 17]
[1]
  MIC S. aureus ATCC 29213: 8 µg/mL (≈ 23.8 µM)
[2]
  MIC E. faecalis ACTCC 29212: 8 µg/mL (≈ 23.8 µM)
[3]
  MIC Ps. aerug. oc27853: > 64 µg/mL
[4]
  MIC MRSA oc667: 8 µg/mL (≈ 23.8 µM)
[5]
  MIC C. tropicalis: 4 µg/mL (≈ 11.9 µM)
[6]
  MIC A. niger 10578: 4 µg/mL (≈ 11.9 µM)
[7]
  MIC C. albicans 10231: ≤ 16 µg/mL
[8]
  MIC E. faecium oc2993: 8 µg/mL (≈ 23.8 µM)
[9]
  MIC Ps. aerug. oc161: > 64 µg/mL
[10]
  MIC E. coli oc2605: 64 µg/mL (≈ 191 µM)
[11]
  MIC E. faecalis oc3041: 8 µg/mL (≈ 23.8 µM)
[12]
  MIC MRSA oc2089: 8 µg/mL (≈ 23.8 µM)
[13]
  MIC K. pneum. oc1943: > 64 µg/mL
[14]
  MIC E. coli oc2530: 8 µg/mL (≈ 23.8 µM)
[15]
  MIC S. epi oc2603: 8
[16]
  IC50: 38.3 mM
  IC min: 15.6 mM

## CNCCCc1ccc(OCCC2(c3ccc(F)cc3)C=CCCC2)cc1 (stereo not drawn) [Compound 24]
[1]
  MIC S. aureus ATCC 29213: 8 µg/mL (≈ 21.8 µM)
[2]
  MIC E. faecalis ACTCC 29212: 8 µg/mL (≈ 21.8 µM)
[3]
  MIC Ps. aerug. oc27853: > 128 µg/mL
[4]
  MIC MRSA oc667: 8 µg/mL (≈ 21.8 µM)
[5]
  MIC C. tropicalis: 8 µg/mL (≈ 21.8 µM)
[6]
  MIC A. niger 10578: 4 µg/mL (≈ 10.9 µM)
[7]
  MIC C. albicans 10231: 8 µg/mL (≈ 21.8 µM)
[8]
  MIC E. faecium oc2993: 8 µg/mL (≈ 21.8 µM)
[9]
  MIC Ps. aerug. oc161: > 128 µg/mL
[10]
  MIC E. coli oc2605: > 64 µg/mL
[11]
  MIC E. faecalis oc3041: 8 µg/mL (≈ 21.8 µM)
[12]
  MIC MRSA oc2089: 8 µg/mL (≈ 21.8 µM)
[13]
  MIC K. pneum. oc1943: > 128 µg/mL
[14]
  MIC E. coli oc2530: 8 µg/mL (≈ 21.8 µM)
[15]
  MIC S. epi oc2603: 8
[16]
  IC50: 185 mM
  IC min: 125 mM

## CC1COc2c(N3CCN(C)CC3)c(F)cc3c(=O)c(C(=O)O)cn1c23 (stereo not drawn) [OFX, reference compound]
[1]
  MIC S. aureus ATCC 29213: 0.5 µg/mL (≈ 1.38 µM)
[2]
  MIC E. faecalis ACTCC 29212: 2 µg/mL (≈ 5.53 µM)
[3]
  MIC Ps. aerug. oc27853: 8 µg/mL (≈ 22.1 µM)
[4]
  MIC MRSA oc667: 0.5 µg/mL (≈ 1.38 µM)
[5]
  MIC C. tropicalis: > 128 µg/mL
[6]
  MIC A. niger 10578: > 128 µg/mL
[7]
  MIC C. albicans 10231: > 128 µg/mL
[8]
  MIC E. faecium oc2993: 4 µg/mL (≈ 11.1 µM)
[9]
  MIC Ps. aerug. oc161: 2 µg/mL (≈ 5.53 µM)
[10]
  MIC E. coli oc2605: ≤ 0.12 µg/mL
[11]
  MIC E. faecalis oc3041: 2 µg/mL (≈ 5.53 µM)
[12]
  MIC MRSA oc2089: 4 µg/mL (≈ 11.1 µM)
[13]
  MIC K. pneum. oc1943: 0.25 µg/mL (≈ 0.692 µM)
[14]
  MIC E. coli oc2530: ≤ 0.12 µg/mL
[15]
  MIC S. epi oc2603: 2
